Measured values as given in patent publication US12077503B2, “Substituted cyclic amides and their use as herbicides” (FMC CORPORATION, priority 2015, dated 2024).

Assays:
Format in all cases: in vivo
[1] = tested on: sedge, umbrella (small-flower umbrella sedge, Cyperus difformis); test: Test B flooded paddy test; settings: Flood, 250 g ai/ha; 0 to 100 scale where 0 is no effect and 100 is complete control; 13 to 15 d
Outline: (§1)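 Evaluation by eye, against controls, occurred 13–15 d post-treatment in a greenhouse, using a 0 (no effect) to 100 (complete control) scale. Application was into the paddy water, 3 cm deep over the soil, on 2-leaf plants.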

rice (Oryra sativa) = test: Test B flooded paddy test; settings: Flood, 250 g ai/ha; 0 to 100 scale where 0 is no effect and 100 is complete control; 13 to 15 d
Outline: as §1

[2] = tested on: barnyardgrass (Echinochloa crus-galli); test: Test B flooded paddy test; settings: Flood, 250 g ai/ha; 0 to 100 scale where 0 is no effect and 100 is complete control; 13 to 15 d
Outline: as §1

[3] = tested on: ducksalad (Heteranthera limosa); test: Test B flooded paddy test; settings: Flood, 250 g ai/ha; 0 to 100 scale where 0 is no effect and 100 is complete control; 13 to 15 d
Outline: as §1

[4] = tested on: ryegrass, Italian (Italian ryegrass, Lolium multiflorum); test: Test A preemergence
Outline: (§2)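 Seeds sprayed preemergence with a directed soil spray, or plants at 2 to 10 cm height and one- to two-leaf stage sprayed postemergence, with test chemicals in a non-phytotoxic solvent mixture containing surfactant, in loam soil–sand blend. Injury rated visually against untreated controls after about 10 d in greenhouse, 0 (no effect) to 100 (complete control).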

Kochia (Kochia scoparia) [5] = test: Test A preemergence
Outline: as §2

[6] = tested on: barnyardgrass (Echinochloa crus-galli); test: Test A preemergence
Outline: as §2

[7] = tested on: ragweed (common ragweed, Ambrosia elatior); test: Test A preemergence
Outline: as §2

[8] = tested on: giant foxtail (Setaria faberii); test: Test A preemergence
Outline: as §2

[9] = tested on: pigweed (Amaranthus retroflexus); test: Test A preemergence
corn (Zea mays) = test: Test A postemergence
Outline: as §2

[10] = tested on: ryegrass, Italian (Italian ryegrass, Lolium multiflorum); test: Test A postemergence
Outline: as §2

[11] = tested on: wheat (Triticum aestivum); test: Test A postemergence
Outline: as §2

[12] = tested on: blackgrass (Alopecurus myosuroides); test: Test A postemergence
Outline: as §2

Kochia (Kochia scoparia) [13] = test: Test A postemergence
Outline: as §2

[14] = tested on: barnyardgrass (Echinochloa crus-galli); test: Test A postemergence
Outline: as §2

[15] = tested on: ragweed (common ragweed, Ambrosia elatior); test: Test A postemergence
Outline: as §2

[16] = tested on: Galium (catchweed bedstraw, Galium aparine); test: Test A postemergence
Outline: as §2

[17] = tested on: giant foxtail (Setaria faberii); test: Test A postemergence
Outline: as §2

[18] = tested on: pigweed (Amaranthus retroflexus); test: Test A postemergence
Outline: as §2

[19] = 125 g ai/ha, Preemergence, visual injury after approximately 10 d, 0 to 100 scale where 0 is no effect and 100 is complete control
[20] = 500 g ai/ha, preemergence, 0 to 100 scale, 0 = no effect, 100 = complete control
[21] = 125 g ai/ha, postemergence, visual rating after approx. 10 d, 0 to 100 scale (0 no effect, 100 complete control)
[22] = 500 g ai/ha, postemergence, visual injury, 0 to 100 scale (0 no effect, 100 complete control), approx. 10 d
[23] = Preemergence, 500 g ai/ha, visual injury approx. 10 d
[24] = 125 g ai/ha, postemergence, visual injury rating on 0 to 100 scale (0 no effect, 100 complete control), approx. 10 d
[25] = Postemergence, 500 g ai/ha, 0 to 100 scale where 0 is no effect and 100 is complete control

Cc1ccc(C2CNC(=O)C2C(=O)Nc2ccccc2F)cc1C(F)(F)F (racemic) [Compound 654]
Plant response rating, Sedge, Umbrella [1]: 0
Plant response rating, Rice (rice (Oryra sativa)): 0
Plant response rating, Barnyardgrass [2]: 35
Plant response rating, Ducksalad [3]: 90
Plant response rating, Ryegrass, Italian [4, 19]: 40
Plant response rating, Ryegrass, Italian [4, 20]: 80
Plant response rating, Kochia (Kochia (Kochia scoparia) [5]; [19]): 0
Plant response rating, Kochia (Kochia (Kochia scoparia) [5]; [20]): 40
Plant response rating, Barnyardgrass [6, 19]: 90
Plant response rating, Barnyardgrass [6, 20]: 90
Plant response rating, Ragweed [7, 19]: 0
Plant response rating, Ragweed [7, 20]: 30
Plant response rating, Foxtail, Giant [8, 19]: 90
Plant response rating, Foxtail, Giant [8, 20]: 90
Plant response rating, Pigweed [9, 19]: 40
Plant response rating, Pigweed [9, 20]: 70
Plant response rating, Corn (corn (Zea mays); [21]): 20
Plant response rating, Corn (corn (Zea mays); [22]): 70
Plant response rating, Ryegrass, Italian [10, 21]: 30
Plant response rating, Ryegrass, Italian [10, 22]: 60
Plant response rating, Wheat [11, 21]: 0
Plant response rating, Wheat [11, 22]: 40
Plant response rating, Blackgrass [12, 21]: 30
Plant response rating, Blackgrass [12, 22]: 50
Plant response rating, Kochia (Kochia (Kochia scoparia) [13]; [21]): 20
Plant response rating, Kochia (Kochia (Kochia scoparia) [13]; [22]): 50
Plant response rating, Barnyardgrass [14, 21]: 90
Plant response rating, Barnyardgrass [14, 22]: 90
Plant response rating, Ragweed [15, 21]: 0
Plant response rating, Ragweed [15, 22]: 20
Plant response rating, Galium [16, 21]: 40
Plant response rating, Galium [16, 22]: 60
Plant response rating, Foxtail, Giant [17, 21]: 70
Plant response rating, Foxtail, Giant [17, 22]: 90
Plant response rating, Pigweed [18, 21]: 0
Plant response rating, Pigweed [18, 22]: 20

COc1ccc(N2CC(c3cccc(C(F)(F)F)c3)C(C(=O)Nc3ccccc3F)C2=O)cc1 (stereo not drawn) [Compound 505]
Plant response rating, Sedge, Umbrella [1]: 0
Plant response rating, Rice (rice (Oryra sativa)): 0
Plant response rating, Barnyardgrass [2]: 0
Plant response rating, Ducksalad [3]: 0
Plant response rating, Ryegrass, Italian [4, 19]: 0
Ryegrass, Italian plant response rating (0 to 100 scale, 0 is no effect, 100 is complete control) [4, 23]: 0
Plant response rating, Kochia (Kochia (Kochia scoparia) [5]; [19]): 0
Kochia plant response rating (0 to 100 scale, 0 is no effect, 100 is complete control) (Kochia (Kochia scoparia) [5]; [23]): 0
Plant response rating, Barnyardgrass [6, 19]: 0
Barnyardgrass plant response rating (0 to 100 scale, 0 is no effect, 100 is complete control) [6, 23]: 0
Plant response rating, Ragweed [7, 19]: 0
Ragweed plant response rating (0 to 100 scale, 0 is no effect, 100 is complete control) [7, 23]: 0
Plant response rating, Foxtail, Giant [8, 19]: 0
Foxtail, Giant plant response rating (0 to 100 scale, 0 is no effect, 100 is complete control) [8, 23]: 0
Plant response rating, Pigweed [9, 19]: 0
Pigweed plant response rating (0 to 100 scale, 0 is no effect, 100 is complete control) [9, 23]: 0
Corn plant response rating (corn (Zea mays); [24]): 0
Plant response rating, Corn (corn (Zea mays); [25]): 0
Ryegrass, Italian plant response rating [10, 24]: 0
Plant response rating, Ryegrass, Italian [10, 25]: 0
Wheat plant response rating [11, 24]: 0
Plant response rating, Wheat [11, 25]: 0
Blackgrass plant response rating [12, 24]: 0
Plant response rating, Blackgrass [12, 25]: 0
Kochia plant response rating (Kochia (Kochia scoparia) [13]; [24]): 0
Plant response rating, Kochia (Kochia (Kochia scoparia) [13]; [25]): 0
Barnyardgrass plant response rating [14, 24]: 0
Plant response rating, Barnyardgrass [14, 25]: 0
Ragweed plant response rating [15, 24]: 0
Plant response rating, Ragweed [15, 25]: 0
Galium plant response rating [16, 24]: 0
Plant response rating, Galium [16, 25]: 0
Foxtail, Giant plant response rating [17, 24]: 0
Plant response rating, Foxtail, Giant [17, 25]: 0
Pigweed plant response rating [18, 24]: 0
Plant response rating, Pigweed [18, 25]: 10
